Laboratory results from EP0552379B1, “DIHYDROPYRIDINE DERIVATIVES, AND PROCESS FOR THEIR PREPARATION” (FUJISAWA PHARMACEUTICAL CO., LTD., priority 1991, dated 1993).

How the values were obtained:
β receptor = β receptor binding (^3H-Dihydroalprenolol (DHA) binding to crude cardiac microsomal membrane); parameters: species or system SD strain rats; conditions: [^3H]DHA 1nM, rat heart microsomal membrane, 25°C, 30 minutes
Procedure: (3) β receptor binding Test methods (a) Crude cardiac microsomal membrane preparation SD strain rats were sacrificed by decapitation. The heart was removed and homogenized in buffer (0.25M sucrose, 10mM MOPS, pH7.4) by using Polytoron (Kinematica). The homogenate was homogenized by teflon glass homogenizer. The homogenate was centrifuged (1,000g x 10 min) to remove tissue clumps and the supernatant was centrifuged (10,000g x 10 min) twice. The supernatant was centrifuged (100,000g x 60 min) to yield pellets. The pellets were resuspended in buffer (50mM Tris-HCl, pH7.4), which were referred to as crude microsomal membrane fractions. The obtained suspensions were stored at -80°C until use. (b) ^3H-Dihydroalprenolol (DHA) binding to preparative membrane Frozen crude microsomal membrane fractions were thawed. [^3H) DHA (1nM) was incubated with 50 µl of the membrane preparation at 25°C for 30 minutes in a final volume of 200 µl. At the end of the incubation period, reaction mixture was quickly filtrated over a Whatman GF/C glass filter under aspiration. The filters were washed 5 times with 3ml of the buffer (50mM Tris-HCl, pH7.4). The radioactivity was counted in 6ml of Clear-sol I in Packard scintillation counter (Packard TRI-CARB 4530).

Wistar rats = test: Hypotensive effect (mean arterial pressure, femoral artery, intravenous administration); format: in vivo; conditions: dose 1.0 mg/kg, intravenously
Procedure: Three Wistar rats were used per group. Each animal was placed in a cage sized to the body after cannulation of catheters into the femoral artery and vein under ether anesthesia. Blood pressure was measured in the femoral artery by means of a pressure transducer and recorded as electrically integrated values of mean arterial pressure. Heart rate was counted from instant arterial pressure pulses by running the record paper at a faster speed periodically.
The test compound was administered intravenously through a catheter cannulated in the femoral vein more than 2 hours later the completion of the operation.

COC(=O)C1=C(C(F)(F)F)NC(C)=C(C(=O)OCCc2ccc(OCC(O)CNC(C)C)cc2)C1c1cccc([N+](=O)[O-])c1 (centres unmarked) [Dihydropyridine A, 2-{p-(2-hydroxy-3-isopropylaminopropoxy)phenyl}ethyl 1,4-dihydro-3-methoxycarbonyl-6-methyl-4-m-nitrophenyl-2-trifluoromethylpyridine-5-carboxylate]
Ki (β receptor): 507 nM | Maximum change of blood pressure (Wistar rats): -39(%)
